Test results as given in US8658131B2, “Compounds comprising 4-benzoylpiperidine as a sigma-1-selective ligand” (Washington University, priority 2010, dated 2014).
Counter-ions that a name gives are not always drawn. Like-named read-outs stand apart in the source and are kept apart here. One block for each compound: values may come before it.

What was measured:
VAChT [1] = biological target: T1, VAChT (Homo sapiens, UniProt Q16572); settings: previous study; cited from earlier work
T1 sequence (Q16572 1-532): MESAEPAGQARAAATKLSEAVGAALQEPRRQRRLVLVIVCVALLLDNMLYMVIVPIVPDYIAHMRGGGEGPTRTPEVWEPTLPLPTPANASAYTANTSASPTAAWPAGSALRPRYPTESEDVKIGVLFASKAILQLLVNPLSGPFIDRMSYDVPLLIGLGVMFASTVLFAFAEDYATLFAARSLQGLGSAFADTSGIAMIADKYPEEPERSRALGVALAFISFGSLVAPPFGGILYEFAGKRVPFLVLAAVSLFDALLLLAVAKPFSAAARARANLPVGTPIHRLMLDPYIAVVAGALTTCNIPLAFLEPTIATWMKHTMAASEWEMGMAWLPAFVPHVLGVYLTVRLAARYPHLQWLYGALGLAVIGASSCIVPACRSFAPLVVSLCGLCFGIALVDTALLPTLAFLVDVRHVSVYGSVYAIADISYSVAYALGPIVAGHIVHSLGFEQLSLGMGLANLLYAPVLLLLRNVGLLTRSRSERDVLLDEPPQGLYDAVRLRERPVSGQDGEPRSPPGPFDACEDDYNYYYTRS

σ1 receptor [2] = biological target: σ1 receptor (Homo sapiens, UniProt Q99720); settings: prior art ligands of FIG. 1; read-out: σ1 receptor binding affinity; cited from earlier work
Sequence of σ1 receptor (Homo sapiens, UniProt Q99720) (Q99720 whole entry, species assumed): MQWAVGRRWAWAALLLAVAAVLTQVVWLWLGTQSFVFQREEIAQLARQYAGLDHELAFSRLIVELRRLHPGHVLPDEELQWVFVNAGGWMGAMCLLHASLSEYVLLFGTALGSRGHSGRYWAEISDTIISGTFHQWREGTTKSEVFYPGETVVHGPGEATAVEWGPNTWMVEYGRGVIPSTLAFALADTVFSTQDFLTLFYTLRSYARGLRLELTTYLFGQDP

σ2 receptor [3] = biological target: T2, σ2 receptor (Rattus norvegicus, UniProt Q5U3Y7); test: σ2 binding of Table 5 compounds; parameters: species or system guinea pig; settings: read-out: σ2 Ki (nM) ± SEM; Table 6
T2 sequence (Q5U3Y7 1-176): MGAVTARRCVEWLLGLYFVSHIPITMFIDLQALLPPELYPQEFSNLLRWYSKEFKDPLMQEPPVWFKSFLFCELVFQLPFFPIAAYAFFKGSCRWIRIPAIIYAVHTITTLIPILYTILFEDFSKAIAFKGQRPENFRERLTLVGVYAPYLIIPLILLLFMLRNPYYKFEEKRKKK
Description: Compounds were tested for VAChT binding using highly purified Torpedo synaptic vesicles. The σ1 and σ2 binding affinities were tested in rat brain and in guinea pig membranes, respectively. Structures and Equilibrium binding constants (Ki) are reported in Table 5 and Table 6, respectively. As in previous studies, we define ligand selectivity in terms of a selectivity index which is calculated as Ki (σ1 or σ2)/Ki (VAChT).
Consequently, we also screened the target compounds for sigma binding to identify selective VAChT ligands from this new structural class of agents.

σ1 receptors = biological target: T3, σ1 receptors (Rattus norvegicus, UniProt Q9R0C9); test: σ1 binding of Table 5 compounds
T3 construct: tested in rat brain and in guinea pig membranes, respectively; from tissue; host or cells: rat brain
T3 sequence (Q9R0C9 whole entry): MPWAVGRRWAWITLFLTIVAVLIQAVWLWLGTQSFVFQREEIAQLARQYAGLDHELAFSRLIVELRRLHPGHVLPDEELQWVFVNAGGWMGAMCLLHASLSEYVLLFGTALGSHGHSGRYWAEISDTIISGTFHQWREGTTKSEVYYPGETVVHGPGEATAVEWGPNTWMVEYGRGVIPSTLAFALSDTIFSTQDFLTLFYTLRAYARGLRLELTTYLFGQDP

σ2 receptor [4] = biological target: T2, σ2 receptor; test: σ2 receptor binding assay, [3H]DTG, rat liver membrane homogenates; parameters: conducted using rat liver membrane homogenates; from tissue; host or cells: rat liver membrane homogenates
Description: (§1) The compounds were dissolved in DMF, DMSO, or ethanol, and then diluted in 50 mM Tris-HCl buffer containing 150 mM NaCl and 100 mM EDTA at pH 7.4, prior to performing the σ1 and σ2 receptor binding assays.
The incubation time was 2 h at room temperature. Nonspecific binding was determined from samples that contained 10 μM of cold haloperidol. All other procedures were identical to those described for the σ1 receptor binding assay above.
(§2) Ki values were calculated using the method of Cheng and Prusoff and are presented as the mean (±1 SEM).

VAChT [5] = biological target: T4, VAChT (Tetronarce californica, UniProt P81721); test: biochemical; format: binding; settings: for VAChT/σ selectivity: in words; for σ1/VAChT: selectivity index Ki (σ1)/Ki (VAChT); for σ2/VAChT: selectivity index Ki (σ2)/Ki (VAChT)
T4 construct: using highly purified Torpedo synaptic vesicles; from tissue
T4 sequence (P81721 1-515): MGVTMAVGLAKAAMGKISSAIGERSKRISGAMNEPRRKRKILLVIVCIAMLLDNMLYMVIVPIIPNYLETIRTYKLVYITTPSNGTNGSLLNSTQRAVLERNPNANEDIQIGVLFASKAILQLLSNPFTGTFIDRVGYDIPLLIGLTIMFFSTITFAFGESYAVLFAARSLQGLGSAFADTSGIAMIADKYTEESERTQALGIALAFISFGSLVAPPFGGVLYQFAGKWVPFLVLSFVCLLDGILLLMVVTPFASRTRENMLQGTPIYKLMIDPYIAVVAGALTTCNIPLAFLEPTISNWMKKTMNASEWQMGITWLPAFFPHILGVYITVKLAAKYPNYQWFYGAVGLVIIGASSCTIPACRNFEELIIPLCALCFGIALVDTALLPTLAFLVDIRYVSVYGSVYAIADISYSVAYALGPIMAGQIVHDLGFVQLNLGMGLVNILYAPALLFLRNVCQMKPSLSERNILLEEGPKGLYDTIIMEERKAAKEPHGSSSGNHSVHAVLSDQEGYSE

[6] = biological target: T5, human vesicular acetylcholine transporter (VAChT) (Homo sapiens, UniProt Q16572); test: VAChT binding assay, (−)-[3H]vesamicol, human VAChT expressed in PC12 cells
T5 construct: expressed in transfected cells; host or cells: PC12 A123.7 cells (crude extract / homogenized, partially clarified cells)
T5 sequence (Q16572 1-532): T1 sequence (Q16572 1-532)
Description: In vitro binding assays of these novel compounds to VAChT were conducted with human vesicular acetylcholine transporter (VAChT) permanently expressed in PC12^A123.7 cells at about 50 pmol/mg of crude extract. […] Duplicate data were averaged and fitted by regression with a rectangular hyperbola to estimate the Ki value of the novel compound. All compounds were independently assayed at least two times.

σ1 receptor [7] = biological target: T6, σ1 receptor (Cavia porcellus, UniProt Q60492); test: σ1 receptor binding assay, (+)-[3H]pentazocine, guinea pig brain membranes
T6 construct: using guinea pig brain membrane homogenates; from tissue; host or cells: guinea pig brain membrane homogenates
T6 sequence (Q60492 whole entry): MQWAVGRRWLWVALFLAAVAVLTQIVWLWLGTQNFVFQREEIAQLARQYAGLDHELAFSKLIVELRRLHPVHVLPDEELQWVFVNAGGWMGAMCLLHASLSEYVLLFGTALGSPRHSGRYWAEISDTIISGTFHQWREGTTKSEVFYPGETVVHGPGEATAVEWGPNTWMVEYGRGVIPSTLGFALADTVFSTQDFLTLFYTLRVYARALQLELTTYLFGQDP
Description: as §1
The total incubation time was 90 min at room temperature. Nonspecific binding was determined from samples that contained 10 μM of cold haloperidol. After 90 min, the reaction was quenched by adding 150 μL of ice-cold wash buffer (10 mM Tris-HCl, 150 mM NaCl, pH 7.4) using a 96 channel transfer pipet (Fisher Scientific, Pittsburgh, Pa.). The samples were harvested and filtered rapidly through a 96-well fiberglass filter plate (Millipore, Billerica, Mass.) that had been presoaked with 100 μL of 50 mM Tris-HCl buffer at pH 8.0 for 1 h.
as §2

[8] = Sigma-2 σ1 (nM), Table 4, Ki values of VAChT specific compounds, tissue not given

- melting point: 213 °C (dec.)
Compound: O=C(c1ccc(F)cc1)C1CCN(C2CCN(C(=O)c3ccc(F)cc3)CC2O)CC1 (centres unmarked) (as salt: oxalate) [Compound 15a, (3′-Hydroxy-[1,4′-bipiperidine]-1′,4-diyl)bis(4-fluorophenyl)methanone]

- melting point: 152 °C (dec.)
Compound: O=C(c1ccc(F)cc1)C1CCN(C2CCN(C(=O)c3ccccc3)CC2O)CC1 (centres unmarked) (as salt: oxalate) [Compound 15c, (1′-Benzoyl-3′-hydroxy-[1,4′-bipiperidin]-4-yl)(4-fluorophenyl)methanone]

- melting point: 216 °C (dec.)
Compound: COc1ccc(C(=O)C2CCN(C3CCN(C(=O)c4ccc(F)cc4)CC3O)CC2)cc1 (centres unmarked) (as salt: oxalate) [Compound 15e, (1′-(4-Fluorobenzoyl)-3′-hydroxy-[1,4′-bipiperidin]-4-yl)(4-methoxyphenyl)methanone]

- melting point: 220 °C (dec.)
Compound: COc1ccc(C(=O)C2CCN(C3CCN(C(=O)c4ccncc4)CC3O)CC2)cc1 (centres unmarked) (as salt: oxalate) [Compound 15g, (3′-Hydroxy-1′-isonicotinoyl-[1,4′-bipiperidin]-4-yl)(4-methoxyphenyl)methanone]

Compound: Cn1cccc1C(=O)C1CCN(C2Cc3ccccc3CC2O)CC1 (centres unmarked) (as salt: oxalate) [OS-5-60, (1-(3-Hydroxy-1,2,3,4-tetrahydronaphthalen-2-yl)piperidin-4-yl)(1-methyl-1H-pyrrol-2-yl) methanone oxalate]
- melting point: 212 to 213 °C

Compound: Cc1ccc(C(=O)C2CCN(C3Cc4c(N)cccc4CC3O)CC2)cn1 (centres unmarked) (as salt: oxalate) [OS-5-70, (1-(8-amino-3-hydroxy-1,2,3,4-tetrahydronaphthalen-2-yl)piperidin-4-yl)(6-methylpyridin-3-yl)methanone oxalate]
- melting point: 98 to 103 °C

Compound: COc1ccc(C(=O)C2CCN(C3Cc4c(N)cccc4CC3O)CC2)cn1 (centres unmarked) (as salt: oxalate) [OS-5-82, (1-(8-Amino-3-hydroxy-1,2,3,4-tetrahydronaphthalen-2-yl)piperidin-4-yl)(6-methoxypyridin-3-yl)methanone oxalate]
- melting point: 81.4 to 83.2 °C

Compound: Nc1cccc2c1CC(N1CCC(C(=O)c3cccnc3)CC1)C(O)C2 (centres unmarked) (as salt: oxalate) [OS-5-110, (1-(8-Amino-3-hydroxy-1,2,3,4-tetrahydronaphthalen-2-yl)piperidin-4-yl)(pyridin-3-yl)methanone oxalate]
- melting point: 109 to 111.2 °C

- melting point: 234 °C (dec.)
Compound: COc1ccc(C(=O)C2CCN(C3CCN(Cc4ccccc4)CC3O)CC2)cc1 (racemic) (as salt: oxalate) [Compound 14g, (1′-Benzyl-3′-hydroxy-[1,4′-bipiperidin]-4-yl)(4-methoxyphenyl)methanone]

- melting point: 188 °C (dec.)
Compound: COc1ccc(C(=O)C2CCN(C3CCN(Cc4ccncc4)CC3O)CC2)cc1 (racemic) (as salt: oxalate) [Compound 14h, (3′-Hydroxy-1′-(pyridin-4-ylmethyl)-[1,4′-bipiperidin]-4-yl)(4-methoxyphenyl)methanone]

Compound: O=C(c1ccc([18F])cc1)C1CCN(C2Cc3ccccc3CC2O)CC1 (racemic) [FBBV, (±)-trcms-2-Hydroxy-3-(4-(4-[^18F]fluorobenzoyDpiperidino)tetralin]
- Ki (VAChT [1]): 0.0027 µM

Compound: Cc1ccc(C2CCN(C3CCCCC3O)CC2)cc1 (single isomer, unassigned; (-)) [(−)-p-methylvesamicol]
- Ki (σ1 receptor [2]): 0.0081 µM

Compound: OC1CCCCC1N1CCC(c2ccccc2)CC1 (single isomer, unassigned; (-)) [(−)-vesamicol, (−)-trans-2-(4-phenylpiperidino)cyclohexanol]
- Ki (σ1 receptor [2]): 0.0735 µM

Compound: O[C@H]1CCCC[C@@H]1N1CCC(c2ccc(I)s2)CC1 [(1S,2S)-2-(4-(5-iodothiophen-2-yl)piperidin-1-yl)cyclohexanol]
- Ki (σ1 receptor [2]): 0.00939 µM

Compound: Cc1ccc(C(=O)C2CCN(C3Cc4ccccc4CC3O)CC2)cn1 (centres unmarked) [OS-5-40, oxalate]
- Ki (σ2 receptor [3]): 3770 ± 886 nM
- Ki (σ1 receptors): 2.11 ± 0.289 µM
- Ki (σ2 receptor [4]; [8]): 3770 ± 886 nM

Compound: Cn1cccc1C(=O)C1CCN(C2Cc3ccccc3CC2O)CC1 (centres unmarked) [OS-5-60, (1-(3-Hydroxy-1,2,3,4-tetrahydronaphthalen-2-yl)piperidin-4-yl)(1-methyl-1H-pyrrol-2-yl) methanone oxalate]
- Ki (σ2 receptor [3]): 2550 ± 339 nM
- Ki (VAChT [5]): 0.0184 ± 0.00254 µM
- VAChT/σ selectivity (VAChT [5]): moderate or high
- σ1/VAChT (VAChT [5]): 70.7
- σ2/VAChT (VAChT [5]): 138.8
- Ki (σ1 receptors): 1.3 ± 0.093 µM
- Ki (σ2 receptor [4]; [8]): 2550 ± 339 nM

Compound: COc1ccc(C(=O)C2CCN(C3Cc4c(N)cccc4CC3O)CC2)cn1 (centres unmarked) [OS-5-82, (1-(8-Amino-3-hydroxy-1,2,3,4-tetrahydronaphthalen-2-yl)piperidin-4-yl)(6-methoxypyridin-3-yl)methanone oxalate]
- Ki (σ2 receptor [3]): 10800 ± 1280 nM
- Ki ([6]; Table 4, Ki values of VAChT specific compounds, source not given, read-out: VAChT): 23.3 ± 3.43 nM
- Ki (σ1 receptor [7]; Table 4, Ki values of VAChT specific compounds, tissue not given, read-out: Sigma-1 σ1): 5.682 ± 0.026 µM
- Ki (VAChT [5]): 0.048 ± 0.0114 µM
- VAChT/σ selectivity (VAChT [5]): moderate or high
- σ1/VAChT (VAChT [5]): 118.4
- σ2/VAChT (VAChT [5]): 225.3
- Ki (σ1 receptors): 5.682 ± 0.026 µM
- Ki (σ2 receptor [4]; Table 4, Ki values of VAChT specific compounds, tissue not given, read-out: Sigma-2 σ1): 10800 ± 1280 nM

Compound: Nc1cccc2c1CC(N1CCC(C(=O)c3cccnc3)CC1)C(O)C2 (centres unmarked) [OS-5-110, (1-(8-Amino-3-hydroxy-1,2,3,4-tetrahydronaphthalen-2-yl)piperidin-4-yl)(pyridin-3-yl)methanone oxalate]
- Ki (σ2 receptor [3]): 5080 ± 221 nM
- Ki ([6]; VAChT (nM), Table 4, Ki values of VAChT specific compounds, source not given): 2.2 nM
- Ki (VAChT [5]): 0.118 ± 0.0236 µM
- VAChT/σ selectivity (VAChT [5]): moderate or high
- σ1/VAChT (VAChT [5]): 172.4
- σ2/VAChT (VAChT [5]): 43.0
- Ki (σ1 receptors): 20.3 ± 8.13 µM
- Ki (σ2 receptor [4]; [8]): 5080 ± 221 nM

Compound: O=C(c1ccc(OCCF)cc1)C1CCN(C2Cc3ccccc3CC2O)CC1 (centres unmarked) [TZ-3-148]
- Ki (σ2 receptor [3]): 1890 ± 239 nM
- VAChT/σ selectivity (VAChT [5]): poor selectivity
- Ki (σ1 receptors): 0.0132 ± 0.0002 µM

Compound: CNc1ccc(C(=O)C2CCN(C3Cc4ccccc4CC3O)CC2)cc1 (centres unmarked) [TZ-3-156]
- Ki (σ2 receptor [3]): 6180 ± 537 nM
- Ki (VAChT [5]): 0.00303 µM
- VAChT/σ selectivity (VAChT [5]): high selectivity
- σ1/VAChT (VAChT [5]): 100.5
- σ2/VAChT (VAChT [5]): 2040
- Ki (σ1 receptors): 0.0132 ± 0.00048 µM

Compound: O=C(c1ccc(OCCF)nc1)C1CCN([C@H]2Cc3ccccc3C[C@@H]2O)CC1 [TZ-5-3]
- Ki (σ2 receptor [3]): 1860 ± 144 nM
- Ki (VAChT [5]): 0.038 ± 0.00384 µM
- VAChT/σ selectivity (VAChT [5]): moderate or high
- σ1/VAChT (VAChT [5]): 55.8
- σ2/VAChT (VAChT [5]): 48.9
- Ki (σ1 receptors): 2.12 ± 0.049 µM

Compound: OC1CN(Cc2cccc(I)c2)CCC1N1CCC(c2ccccc2)CC1 (centres unmarked) [meta-iodobenzyltrozamicol]
- Ki (σ1 receptor [2]): 0.092 µM

Compound: (4-Fluorophenyl)(4′-hydroxy-1′-(pyridin-4-ylmethyl)-[1,3′-bipiperidin]-4-yl)methanone [Compound 16d]
- Ki ([6]; expressed human VAChT, mean ± SEM, read-out: VAChT (Ki)): 237 nM
- Ki (σ1 receptor [7]; membrane preparations of guinea pig brain, mean ± SEM, at least three experiments, read-out: σ1 (Ki)): 1.16 ± 0.128 µM
- σ1/VAChT selectivity (σ1 receptor [7]; ratio of Ki values, Table 1): 0.20
- σ1/σ2 selectivity (σ1 receptor [7]; ratio of Ki values, Table 1): 11
- Ki (σ2 receptor [4]; homogenates of rat liver, mean ± SEM, read-out: σ2 (Ki)): 13000 ± 2630 nM
